Measured values reported in patent publication US7897637B2, “Methods of using flavonoids to enhance memory” (The Salk Institute for Biological Studies, priority 2006, dated 2011).
Where two headings read alike, the source gives them in different places.

Legend:
[1] = tested on: PC12 cells; conditions: cited from earlier work; for EC50: PC12 cells, read-out: EC50 for differentiation; for EC50 / differentiation of the cells induced at best: Sagara et al. 2004
[2] = tested on: PC12 cells; test: PC12 cell differentiation assay (neurite outgrowth); assay type: cell-based; conditions: for EC50 / Emax: Rattus norvegicus, PC-12, PC12 cells in N2 medium, 24 hours, neurites scored; for EC50: read-out: EC50 (μM), induction of PC12 cell differentiation; for Emax: read-out: Maximal Efficacy, induction of PC12 cell differentiation
Description: Four trihydroxyflavones (THF) and three dihydroxyflavones (DHF) which lack one or two, respectively, of the hydroxyl groups found in fisetin were tested for their ability to induce the differentiation of PC12 cells. Differentiation was assessed by scoring neurite outgrowth (Sagara et al., J. Neurochem., 90:1144-1155, 2004). […]
PC12 cells in N2 medium were treated with flavonoids for 24 hours at which time the cells were scored for the presence of neurites. PC12 cells produce neurites much more rapidly when treated in N2 medium than when treated in regular growth medium (Kimura et al., J. Cell Biol., 116:777-83, 1992). For each treatment, 100 cells in each of three separate fields were counted. Cells were scored positive if one or more neurites>1 cell body diameter in length were observed.

[3] = tested on: HT22 cells; test: Protection of HT22 cells from oxidative glutamate toxicity (MTT assay); assay type: cell-based, mouse; conditions: for EC50 / Emax: Mus musculus, 5 mM glutamate, MTT assay; for EC50: HT-22, 24 h, read-out: EC50 (μM), protection from oxidative-stress induced death; for EC50 / Emax / effect of higher levels of BSO on protection: 24 hours; for Emax: HT-22, read-out: Maximal Efficacy, protection from oxidative-stress induced death; for effect of higher levels of BSO on protection: 5 mM glutamate + 1 mM BSO, MTT
Excerpt: Fisetin is effective at protecting nerve cells from oxidative stress-induced death (Ishige et al., Free Radic. Biol. Med., 30:433-446, 2001). This Example illustrates the structure-activity relationship between fisetin derivatives and neuroprotection in a model of oxidative glutamate toxicity using mouse HT22 cells. This pathway of programmed cell death is initiated by the addition of glutamate to the extracellular medium. Glutamate inhibits the uptake of cystine which is required for glutathione (GSH) biosynthesis, resulting in the depletion of GSH in neurons (for review see Tan et al., Curr. Top. Med. Chem., 1:497-506, 2001). Subsequently, this decrease in cellular GSH results in the production of reactive oxygen species (ROS) by mitochondria. The ROS accumulation then causes Ca^+2 influx from the extracellular medium which leads to cell death.
HT22 cells were untreated (Ct) or treated with 10 μM fisetin, 25 μM 3,3′-DHF, 25 μM 3,4′-DHF, 2.5 μM 3′,4′-DHF, 2.5 μM 3,3′,4′-THF 25 μM 3,7,3′-THF, 25 μM 3,7,4′-THF or 10 μM 7,3′,4′-THF in the presence of 5 mM glutamate±50 μM PD98059. Twenty four (24) hours later cell survival was measured by the MTT assay.
HT22 cells were untreated (Ct) or treated with 10 μM fisetin, 25 μM 3,3′-DHF. […] Protection by all of the other flavonoids was unaffected by BSO.
Cell viability was determined by a modified version of the 3-(4,5-dimethylthiazol-2-yl)-2,5-diphenyl tetrazolium bromide (MTT) assay based on the standard procedure (Hansen et al., J. Immunol. Meth., 119:203-10, 1989). Briefly, cells were seeded onto 96-well microtiter plates at a density of 5×10^3 cells per well. The next day, the medium was replaced with DMEM supplemented with 7.5% DFCS and the cells were treated with the different flavonoids alone or in the presence of 5 mM glutamate. Twenty four hours later, the medium in each well was aspirated and replaced with fresh medium containing 2.5 μg/ml MTT. After 4 hours of incubation at 37° C., cells were solubilized with 100 μl of a solution containing 50% dimethylformamide and 20% SDS (pH 4.7). The absorbance at 570 nm was measured on the following day with a microplate reader (Molecular Devices). Results obtained from the MTT assay correlated directly with the extent of cell death as confirmed visually. Controls employing wells without cells were used to determine the effects of the agents upon the assay chemistry.

[4] = Trolox Equivalent Activity Concentration (ABTS decolorization assay); conditions: Trolox as reference
Description: To determine if the protection seen with the different fisetin derivatives correlated with their antioxidant properties, their Trolox Equivalent Activity Concentration (TEAC) values were determined. In this procedure, a compound is compared to Trolox, a water-soluble vitamin E analog, for its ability to reduce the radical cation of ABTS in aqueous solution. As reported previously, fisetin has a TEAC value of ˜3 (Table II). None of the derivatives had TEAC values in this range despite, in some cases, showing better protection against oxidative stress-induced death. Thus, there was no correlation with antioxidant activity as defined by TEAC value and protection in this system.
TEAC values for the flavonoids were determined according to (Re et al. Free Rad. Biol. Med., 26:1231-7, 1999) but modified for a plate reader. Briefly, 250 μl of 2,2′-azinobis(3-ethylbenzothiazoline 6-sulfonate)(ABTS) treated overnight with potassium persulfate and diluted to an OD of ˜0.7 at 734 nm was added to 2.5 μl of a flavonoid solution in ethanol. The change in absorbance due to the reduction of the ABTS radical cation was measured at 734 nm for 4 minutes. To calculate the TEAC, the gradient of the plot of the percentage inhibition of absorbance vs. concentration for the flavonoid in question is divided by the gradient of the plot for Trolox.

[5] = tested on: Nrf2 and HO-1; test: Nrf2 and HO-1 induction in HT22 cells (immunoblotting); assay type: cell-based, mouse; conditions: for increasing the levels of Nrf2 and inducing HO-1 synthesis: HT22 cells, 10-25 μM, 4 hours (Nrf2), 24 hours (HO-1)
Description: Since the ability to activate the ARE could be important for some of the beneficial effects of flavonoids such as fisetin, it was determined which, if any, of the fisetin derivatives could activate the ARE and induce the synthesis of downstream proteins such as HO-1. HT22 cells were untreated (control) or treated with 10 μM fisetin, 25 μM 3,3′DHF, 25 μM 3,4′-DHF, 10 μM 3′,4′-DHF, 10 μM 3,3′,4′-THF, 25 μM 3,7,3′-THF, 25 μM 3,7,4′-THF or 10 μM 7,3′,4′-THF for 4 hours. Nuclei were prepared and equal amounts of protein were analyzed by SDS-PAGE and immunoblotting with anti-Nrf-2 antibodies.
ERK activation is implicated in the induction of Nrf2 by certain stimuli in some cell types. To determine if ERK activation plays a role in the induction of Nrf2 and HO-1 by fisetin and its derivatives, cells were pretreated with PD98059 prior to the addition of the flavonoids to the cells. HT22 cells then were untreated (control) or treated for 24 hours with 10 μM fisetin, 25 μM 3,3′-DHF, 25 μM 3,4′-DHF, 10 μM 3′,4′-DHF, 10 μM 3,3′,4′-THF, 25 μM 3,7,3′-THF, 25 μM 3,7,4′-THF or 10 μM 7,3′,4′-THF. Cell lysates were prepared and equal amounts of cellular protein were analyzed by SDS-PAGE and immunoblotting with anti-HO-1 antibodies. Immunoblotting with anti-actin was used as a loading control.
For immunoblotting of HO-1, untreated and flavonoid-treated HT22 cells from the same density cultures as used for the cell death assays were washed twice in cold phosphate-buffered saline (PBS) then scraped into lysis buffer containing 50 mM HEPES, pH 7.4, 150 mM NaCl, 50 mM NaF, 1.5 mM MgC2, 1 mM EGTA, 10% glycerol, 1% Triton X-100, 10 mM sodium pyrophosphate, 1 mM Na3VO4, 1 mM phenylmethylsulfonyl fluoride (PMSF), 15 μg/ml aprotinin, 1 μg/ml pepstatin, and 5 μg/ml leupeptin. Lysates were incubated at 4° C. for 30 minutes, and then cleared by centrifugation at 14,000 rpm for 10 minutes. For immunoblotting of Nr12, nuclear extracts were prepared as described (Schreiber et al., Nuc. Acids Res., 17:6419, 1989) from untreated and flavonoid-treated cells. […] Protein concentrations were determined using the BCA protein assay (Pierce). Equal amounts of protein were solubilized in 2.5×SDS sample buffer, separated on 10% SDS polyacrylamide gels and transferred to nitrocellulose. The primary antibodies used were: anti-Nrf2 (#SC13032; 1/1000) from Santa Cruz Biotechnology (Santa Cruz, Calif.) and anti-HO-1 (#SPA-896; 1/5000) from Stressgen (Victoria, BC Canada).

[6] = tested on: ERK2 (p42); test: ERK2 (p42) phosphorylation in hippocampal slices (immunoblotting, densitometry); assay type: cell-based, rat; conditions: inhibitor alone (50 μM PD98059 or 10 μM U0126, 30 minutes)
Description: (§1) Western blots panels A and B) of hippocampal slices treated with (A) 1 μM fisetin or (B) pretreated for 30 minutes with either 50 μM PD98059 (PD) or 10 μM U0126 (U) before the addition of 1 μM fisetin for 5 minutes, which blots were probed with the indicated antibodies.
(§2) Hippocampal slices in artificial cerebral spinal fluid (ACSF) were treated with either 1 μM fisetin for 5-20 minutes or pretreated for 30 minutes with either 50 μM PD98059 (PD) or 10 μM U0126 (J) before the addition of 1 μM fisetin for 5 minutes. Equal amounts of protein were analyzed by SDS-PAGE and immunoblotting with antibodies to phospho-ERK and phospho-CRFB along with antibodies to the unphosphorylated forms of the proteins. The average phosphoprotein signal from the blots was quantified by densitometry and normalized to total protein was plotted±S.D.

[7] = tested on: CREB; test: CREB phosphorylation in hippocampal slices (immunoblotting, densitometry); assay type: cell-based, rat; conditions: inhibitor alone (50 μM PD98059 or 10 μM U0126, 30 minutes)
Description: as §1, §2

[8] = tested on: ERK1 (p44); test: ERK1 (p44) phosphorylation in hippocampal slices (immunoblotting, densitometry); assay type: cell-based, rat; conditions: inhibitor alone (50 μM PD98059 or 10 μM U0126, 30 minutes)
Description: as §1, §2

[9] = tested on: GSH; test: Total cellular GSH levels in HT22 cells; assay type: cell-based, mouse; conditions: 8 hours
Description: The effects of fisetin derivatives on cellular GSH levels was then determined. HT22 cells were untreated (Ct) or treated with 10 μM fisetin, 25 μM 3,3′-DHF, 25 μM 3,4′-DHF, 2.5 μM 3′,4′-DHF, 2.5 μM 3,3′,4′-THF, 25 μM 3,7,3′-THF, 25 μM 3,7,4′-THF or 10 μM 7,3′,4′-THF alone or in the presence of 5 mM glutamate. After 8 hours cellular levels of total GSH were determined as described in Example 4. The GSH level of the control sample (31.5±10 nmoles/mg protein) was taken as 100%.
Total intracellular GSH/GSSG was determined using whole cell lysates from untreated, glutamate treated, flavonoid treated and glutamate plus flavonoid treated cells as described (Maher and Hanneken, Invest. Opthalmol. Vis. Sci., 46:749-57, 2005, herein incorporated by reference as to the method) and normalized to total cellular protein.

O=c1c(O)c(-c2cc(O)c(O)c(O)c2)oc2cc(O)cc(O)c12 [myricetin]
differentiation promoting activity ([1]; earlier flavonoid comparison): completely ineffective

COc1cc(-c2oc3cc(O)cc(O)c3c(=O)c2O)ccc1O [isorhamnetin, 3′-methoxy-3,5,7,4′-tetrahydroxyflavone]
EC50 [1]: 10 µM | differentiation of the cells induced at best [1]: 50%

O=c1c(O)c(-c2ccc(O)cc2)oc2cc(O)ccc12 [3,7,4′-THF, 3,4′,7-trihydroxyflavone]
EC50 [2]: 10 µM | Emax [2]: 70 to 80% | EC50 ([3]; HT22 cells): 12.5 µM | Emax ([3]; HT22 cells): > 90% | TEAC [4]: 1.01 ± 0.10 | increasing the levels of Nrf2 and inducing HO-1 synthesis [5]: fairly effective | effect of inhibition of ERK activation (PD98059) on Nrf2 and HO-1 induction ([5]; PD98059 pretreatment): reduced

N#CC(=C(/N)Sc1ccccc1N)/C(C#N)=C(\N)Sc1ccccc1N [U0126, reference compound]
p42 phosphoprotein signal normalized to total protein [6]: 0.30±0.05 | CREB phosphoprotein signal normalized to total protein [7]: 0.71±0.31 | p44 phosphoprotein signal normalized to total protein [8]: 0.13±0.06

O=c1c(O)c(-c2cccc(O)c2)oc2cc(O)ccc12 [3,7,3′-THF, 3,3′,7-trihydroxyflavone]
EC50 [2]: 15 µM | Emax [2]: 40 to 50% | EC50 ([3]; HT22 cells): 17 µM | Emax ([3]; HT22 cells): > 90% | TEAC [4]: 1.55 ± 0.34

O=c1cc(-c2ccc(O)c(O)c2)oc2cc(O)ccc12 [7,3′,4′-THF, 3′,4′,7-trihydroxyflavone]
EC50 [2]: 10 µM | Emax [2]: 50 to 60% | effect of higher levels of BSO on protection [3]: reduced protection | protection from oxidative stress-induced death ([3]; HT22 cells, glutamate): equal to or more effective than fisetin | EC50 ([3]; HT22 cells): 5 µM | Emax ([3]; HT22 cells): > 80% | TEAC [4]: 0.89 ± 0.04 | GSH levels in the presence of oxidative stress ([9]; 5 mM glutamate): could not maintain GSH levels | basal levels of GSH ([9]; flavonoid alone): raised the basal levels of GSH

O=c1c(O)c(-c2ccc(O)cc2)oc2ccccc12 [3,4′-DHF, 3,4′-dihydroxyflavone]
ability to induce differentiation ([2]; PC12 cells): slightly less efficacious and potent than fisetin | EC50 [2]: 20 µM | Emax [2]: 50 to 60% | effect of higher levels of BSO on protection [3]: reduced protection | EC50 ([3]; HT22 cells): 10 µM | Emax ([3]; HT22 cells): > 70% | TEAC [4]: 0.62 ± 0.06 | increasing the levels of Nrf2 and inducing HO-1 synthesis [5]: fairly effective

O=c1c(O)c(-c2cccc(O)c2)oc2ccccc12 [3,3′-DHF, 3,3′-dihydroxyflavone]
EC50 [2]: 10 µM | Emax [2]: 40 to 50% | EC50 ([3]; HT22 cells): 12 µM | Emax ([3]; HT22 cells): > 80% | TEAC [4]: 1.01 ± 0.01

O=c1cc(-c2ccc(O)c(O)c2)oc2cc(O)cc(O)c12 [Iuteolin, 5,7,3′,4′-tetrahydroxyflavone]
EC50 [1]: 10 µM | differentiation of the cells induced at best [1]: 50%

O=c1c(O)c(-c2ccc(O)c(O)c2)oc2cc(O)cc(O)c12 [quercetin, 3,5,7,3′,4′-pentahydroxyflavone]
EC50 [1]: 10 µM | differentiation of the cells induced at best [1]: 50%
